Columns and labels:
PTGS2 [1] = experiment: PTGS2 protein level (IHC staining) in ex vivo human skin biopsies exposed to solar simulated radiation; format: cell-based; conditions: SSR 250 J/cm^2; for PTGS2 protein level, mean as % of non-irradiated vehicle / PTGS2 protein level, Δ versus non-irradiated vehicle / PTGS2 protein level, mean score: day 3; for PTGS2 protein level, mean as % of non-irradiated vehicle: irradiated vehicle 198%; for PTGS2 protein level, Δ versus non-irradiated vehicle: irradiated vehicle Δ 98%; for PTGS2 protein level, mean score: non-irradiated vehicle 1.0302, irradiated vehicle 2.0439
Description: (§1) In order to evaluate the efficacy of L-Carnosine on protecting skin from Solar Simulated Radiation (SSR), gene expression and protein level of PTGS2 were analysed. -Ex vivo human skin biopsies were topically treated with L-Carnosine at different concentrations (0.2% and 2.2%), and daily exposed to 250 J/cm^2 of SSR. Gene expression and protein modulation were assessed respectively at day 2 and day3. The radiation dose was selected following the literature, and represent the approximative amount of solar light acquirable under natural conditions by sunbathing.
(§2) Human skin samples were obtained from plastic surgery of healthy patients (aged between 25 and 60), and not intensive sun exposed. The informed consent was obtained from patients and retained by clinic. For the studies, twelve 8 mm diameter punch biopsies were used for each treatment. The skin samples were cultured in modified Williams' E medium at air-liquid interface and, maintained in incubator at the following conditions: 37° C., 5% CO2 and 95% humidity.
(§3) For these studies L-Carnosine was dissolved in vehicle (DMSO/PBS 1:25) at the following concentration 0.2% and 2.2%. Treatments were applied topically and renewed daily as follows: skin biopsies were cleaned with sterile cotton buds and 4 μl of treatment were applied on the biopsy's epidermis. All treated and the control samples were covered with 6 mm diameter delivery membranes.
(§4) Skin irradiation was performed daily, with Suntest XLS+(Ametek Inc., USA) equipped with the provided IR filter and a DAY LIGHT filter, to obtain an emission spectrum between 300 and 800 nm. Every day the skin samples were irradiated with a SSR dose of 250 J/cm^2. Control samples were sham-irradiated under the same conditions.
Skin samples were collected (day 3), fixed in formalin and paraffin embedded. Skin sections were immuno-stained with PTGS2 antibody (Thermo Fisher Scientific Inc., USA). The images of the skin sections were acquired, and the analysis was performed through Image-J application (NIH, USA).

PTGS2 [2] = experiment: PTGS2 gene expression (real-time RT-PCR) in ex vivo human skin biopsies exposed to solar simulated radiation; format: cell-based; conditions: for PTGS2 gene expression, fold-change versus non-irradiated vehicle: SSR 250 J/cm^2 daily, day 2; for PTGS2 gene expression, % of irradiated vehicle: irradiated vehicle = 100; for PTGS2 gene expression, Δ versus irradiated vehicle: irradiated vehicle Δ = 0; for Effect on SSR-induced PTGS2 gene expression, in words: ex vivo human skin, SSR 250 J/cm^2
Description: as §1, §2, §3, §4
Human skin biopsies were collected in cryo-vial containing a commercial RNA stabilization solution (RNAlater, Merck KGaA, Germany) and stored at −80° C. Total RNA was extracted using a commercial kit (Rneasy mini-kit, Qiagen GmbH, Germany) according to the manufacturer's instructions. The expression level of selected genes was determined using Real-time RT-PCR method with custom designed gene array (TaqMan® Array 96-Well Fast Plates, Thermo Fisher Scientific Inc., USA).
Gene expression changes were determined in three donors.

## NCCC(=O)N[C@@H](Cc1cnc[nH]1)C(=O)O [L-Carnosine]
PTGS2 [1]; L-Carnosine 0.2%
  PTGS2 protein level, mean as % of non-irradiated vehicle: 193%
  PTGS2 protein level, Δ versus non-irradiated vehicle: 93%
  PTGS2 protein level, mean score: 1.9913
PTGS2 [1]; L-Carnosine 2.2%
  PTGS2 protein level, mean as % of non-irradiated vehicle: 146%
  PTGS2 protein level, Δ versus non-irradiated vehicle: 46%
  PTGS2 protein level, mean score: 1.5091
PTGS2 [1]; ex vivo human skin
  Effect on SSR-induced PTGS2 protein, in words: efficiently reduce the SSR-induced induction of the PTGS2 gene and the PTGS2-protein
PTGS2 [2]; Donor #1, L-Carnosine 0.2% topical, irradiated vehicle 5.3
  PTGS2 gene expression, fold-change versus non-irradiated vehicle: 4.2 fold-change
PTGS2 [2]; Donor #1, L-Carnosine 0.2%
  PTGS2 gene expression, % of irradiated vehicle: 79%
  PTGS2 gene expression, Δ versus irradiated vehicle: −21
PTGS2 [2]; Donor #1, L-Carnosine 2.2% topical, irradiated vehicle 5.3
  PTGS2 gene expression, fold-change versus non-irradiated vehicle: 4.0 fold-change
PTGS2 [2]; Donor #1, L-Carnosine 2.2%
  PTGS2 gene expression, % of irradiated vehicle: 76%
  PTGS2 gene expression, Δ versus irradiated vehicle: −24
PTGS2 [2]; Donor #2, L-Carnosine 0.2% topical, irradiated vehicle 13.9
  PTGS2 gene expression, fold-change versus non-irradiated vehicle: 11.3 fold-change
PTGS2 [2]; Donor #2, L-Carnosine 0.2%
  PTGS2 gene expression, % of irradiated vehicle: 81%
  PTGS2 gene expression, Δ versus irradiated vehicle: −19
PTGS2 [2]; Donor #2, L-Carnosine 2.2% topical, irradiated vehicle 13.9
  PTGS2 gene expression, fold-change versus non-irradiated vehicle: 7.7 fold-change
PTGS2 [2]; Donor #2, L-Carnosine 2.2%
  PTGS2 gene expression, % of irradiated vehicle: 55%
  PTGS2 gene expression, Δ versus irradiated vehicle: −45
PTGS2 [2]; Donor #3, L-Carnosine 0.2% topical, irradiated vehicle 2.0
  PTGS2 gene expression, fold-change versus non-irradiated vehicle: 1.4 fold-change
PTGS2 [2]; Donor #3, L-Carnosine 0.2%
  PTGS2 gene expression, % of irradiated vehicle: 70%
  PTGS2 gene expression, Δ versus irradiated vehicle: −30
PTGS2 [2]; Donor #3, L-Carnosine 2.2% topical, irradiated vehicle 2.0
  PTGS2 gene expression, fold-change versus non-irradiated vehicle: 1.4 fold-change
PTGS2 [2]; Donor #3, L-Carnosine 2.2%
  PTGS2 gene expression, % of irradiated vehicle: 72%
  PTGS2 gene expression, Δ versus irradiated vehicle: −28
PTGS2 [2]
  Effect on SSR-induced PTGS2 gene expression, in words: efficiently reduce the SSR-induced induction of the PTGS2 gene
PTGS2 [2]; listed as L-carnosine
  Effect on SSR-induced PTGS2 gene expression, in words: reduces the expression of PTGS2
